Measurements reported in patent US8343729B2, “Luciferin luminescent substrate of marine ostracod crustacean and method for production thereof” (National Institute of Advanced Industrial Science and …, priority 2005, dated 2013).

System: Marine ostracod crustacean luciferase
Test: Measurement of luminescence spectra of marine ostracod crustacean luciferins with luciferase
Assay type: biochemical
Conditions: luciferase 100 ng/mL, 50 mM Tris-HCl buffer (pH 7.5)

SMILES	direction of shift of biological luminescence wavelength compared with native luciferin (11)	shift of luminescence maximum wavelength to the long wavelength side compared with native luciferin (spectrum integrated for 30 seconds)
CC(c1ccccc1)c1nc2c(CCCNC(=N)N)[nH]c(-c3c[nH]c4ccccc34)cn-2c1=O (centres unmarked) [Compound 32]	shifted to the long wavelength	–
CC[C@H](C)c1nc2c(/C=C/CNC(=N)N)[nH]c(-c3c[nH]c4ccccc34)cn-2c1=O [Compound 17]	–	about 15 nm
N=C(N)NCCCc1[nH]c(-c2c[nH]c3ccccc23)cn2c(=O)c(Cc3ccccc3)nc1-2 [Compound 30]	shifted to the short wavelength	–

Second part, the molecule after the results:

direction of shift of biological luminescence wavelength compared with native luciferin (11)	shift of luminescence maximum wavelength to the long wavelength side compared with native luciferin (spectrum integrated for 30 seconds)	SMILES
shifted to the long wavelength	–	CCC(c1ccccc1)c1nc2c(CCCNC(=N)N)[nH]c(-c3c[nH]c4ccccc34)cn-2c1=O (centres unmarked) [Compound 34]
shifted to the short wavelength	–	CCC(C)c1nc2c(CCCNC(=N)N)[nH]c(-c3ccc4ccccc4c3)cn-2c1=O (centres unmarked) [Compound 36]
